Experimental data reported in patent publication US11781160B2, “Methods for the production of methacrylates” (priority 2018, dated 2023).

How the values were obtained:
[1] = system: gene transcription in strain 21; test: Transcriptome analysis with added BMA, strain 21
Procedure: (§1) Transcriptome analysis was carried out to characterize transcriptional activity in mutant microorganisms using standard methods.
(§2) Sample Preparation • 1) Streak strains onto fresh MSX agar (15 g/L) plates directly from the cryostocks and incubate overnight at 37° C. • 2) Isolate single colonies and inoculate pre-cultures in MSX, using 50 ml shake flasks. Incubate overnight at 37° C. and 250 rpm. • 3) Inoculate cultures in MSX to an initial OD600 of 0.05, using 250 mL pyrex shake flasks with 24/29 neck join. Incubate at 37° C. and 250 rpm. Do 4 biological replicates (3 replicates for sequencing plus one backup)—4 flasks per strain. • 4) Seal shake flasks with sterile Suba seals. To monitor OD, take samples using a sterile syringe and needle after first swabbing the Suba seals with 70% ethanol. Monitor OD. • 5) When OD reaches 0.3, collect first sample for RNA extraction (“before” sample) into a pre-chilled falcon. Keep samples on ice. • 6) Immediately after, add 20% (v/v) BMA. Re-incubate cultures. • 7) Quickly process the samples according to the RNeasy kit protocol, until step 6 of protocol 1. Always keep samples on ice and store it at −80° C. until further use, if possible, flash freeze in liquid nitrogen it before storing. • 8) One hour after the first sample collection/BMA addition, collect the second sample for RNA extraction (“after” sample). Proceed as explained before. • 9) Continue to monitor the OD until the cultures reach 24 h. • To summarise, each strain tested will have 6 samples to send for sequencing, 3 collected right before the addition and 3 collected one hour after, plus 1 “back-up” for before and after, in case something goes wrong during extraction (8 samples total). Besides the WT strain with the addition of BMA, samples were also collected from a WT culture with no BMA, one hour after reaching OD of 0.3, as a control.
(§3) Transcription was compared for a double mutant and the wild-type in the presence and absence of BMA relative to the level in the wild type in the absence of BMA. For the avoidance of doubt the level in the table is the ratio of the level in the strain under the BMA exposure relative to the level in the wild type in the absence of added BMA.

[2] = system: gene transcription in strain 22; test: Transcriptome analysis with added BMA, strain 22
Procedure: as §1, §2, §3

[3] = system: E. coli BW25113 isolate 8-rob(R156H) rpoB(T1037P) torY(A87T) acrR(49Yfs); test: Growth kinetics of isolated strain 8 with 20% v/v BMA
[4] = system: gene transcription in wild type; test: Transcriptome analysis with added BMA, wild type
Procedure: as §1, §2, §3

[5] = system: gene transcription in double mutant; test: Transcriptome analysis with added BMA, double mutant
Procedure: as §1, §2, §3

[6] = system: E. coli BW25113 isolate 21-marR(V84G) rpoC(R1075C) rpoC(A787V) ompR(R15S) acrB(V901l) acrR(indels); test: Growth kinetics of isolated strain 21 with 20% v/v BMA
[7] = system: E. coli BW25113 isolate 19-marR(V84G) rpoC(R1075C) ompR(R15S) acrB(T3791) acrR(indels); test: Growth kinetics of isolated strain 19 with 20% v/v BMA
[8] = system: E. coli BW25113 isolate 3-rob(R156H) ilvN(C41Y) phoP(L11F) acrB(V448L) acrR(indels); test: Growth kinetics of isolated strain 3 with 20% v/v BMA
[9] = system: E. coli MG1655 acrR(V29G); test: Growth in MSX medium with 20% (v/v) BMA, single mutation strain; type: cell-based, Escherichia coli; conditions: 20% (v/v) BMA added immediately after inoculation
[10] = system: E. coli BW25113 isolate 22-rob(R156H) rpoB(T1037P) groL(P279L) acrR(49Yfs) 1197659(C > A); test: Growth kinetics of isolated strain 22 with 20% v/v BMA

## C=C(C)C(=O)OCCCC [BMA, butyl 2-methylprop-2-enoate]
[1]
  IdhA transcription level relative to wild type without BMA: 20.48
  acrA transcription level relative to wild type without BMA: 5.63
  acrB transcription level relative to wild type without BMA: 8.93
  adiY transcription level relative to wild type without BMA: 10.74
  ariR transcription level relative to wild type without BMA: 6.13
  asr transcription level relative to wild type without BMA: 11.63
  bssR transcription level relative to wild type without BMA: 198.48
  ibpA transcription level relative to wild type without BMA: 29.21
  ibpB transcription level relative to wild type without BMA: 30.97
  narG transcription level relative to wild type without BMA: 65.34
  nirB transcription level relative to wild type without BMA: 39.43
  nirD transcription level relative to wild type without BMA: 42.50
  pspA transcription level relative to wild type without BMA: 21.16
  pspB transcription level relative to wild type without BMA: 14.98
  pspD transcription level relative to wild type without BMA: 14.80
  pspc transcription level relative to wild type without BMA: 14.67
  raiA transcription level relative to wild type without BMA: 22.55
  rmf transcription level relative to wild type without BMA: 36.77
  soxS transcription level relative to wild type without BMA: 1.08
  spy transcription level relative to wild type without BMA: 1.77
  ybfA transcription level relative to wild type without BMA: 33.06
  ybhG transcription level relative to wild type without BMA: 9.26
  ybiH transcription level relative to wild type without BMA: 7.20
  ydgU transcription level relative to wild type without BMA: 6.39
  yhjx transcription level relative to wild type without BMA: 3.11
  yibT transcription level relative to wild type without BMA: 95.47
  ymgA transcription level relative to wild type without BMA: 2.43
  ymgC transcription level relative to wild type without BMA: 1.53
  ynfM transcription level relative to wild type without BMA: 65.39
  yohk transcription level relative to wild type without BMA: 7.09
[2]
  IdhA transcription level relative to wild type without BMA: 25.80
  acrA transcription level relative to wild type without BMA: 7.44
  acrB transcription level relative to wild type without BMA: 7.17
  adiY transcription level relative to wild type without BMA: 23.19
  ariR transcription level relative to wild type without BMA: 12.95
  asr transcription level relative to wild type without BMA: 225.15
  bssR transcription level relative to wild type without BMA: 71.24
  ibpA transcription level relative to wild type without BMA: 70.31
  ibpB transcription level relative to wild type without BMA: 107.99
  narG transcription level relative to wild type without BMA: 61.85
  nirB transcription level relative to wild type without BMA: 20.40
  nirD transcription level relative to wild type without BMA: 26.97
  pspA transcription level relative to wild type without BMA: 47.39
  pspB transcription level relative to wild type without BMA: 35.43
  pspD transcription level relative to wild type without BMA: 38.90
  pspc transcription level relative to wild type without BMA: 39.73
  raiA transcription level relative to wild type without BMA: 52.61
  rmf transcription level relative to wild type without BMA: 17.43
  soxS transcription level relative to wild type without BMA: 3.66
  spy transcription level relative to wild type without BMA: 45.77
  ybfA transcription level relative to wild type without BMA: 36.33
  ybhG transcription level relative to wild type without BMA: 21.92
  ybiH transcription level relative to wild type without BMA: 16.75
  ydgU transcription level relative to wild type without BMA: 94.74
  yhjx transcription level relative to wild type without BMA: 902.70
  yibT transcription level relative to wild type without BMA: 77.30
  ymgA transcription level relative to wild type without BMA: 6.44
  ymgC transcription level relative to wild type without BMA: 5.45
  ynfM transcription level relative to wild type without BMA: 61.15
  yohk transcription level relative to wild type without BMA: 19.75
[3]
  Growth rate: 0.712 ± 0.015 h⁻¹
  Lag time: 5 h
  Max cell concentration: 0.435 ± 0.010 g/L
[4]
  IdhA transcription level relative to wild type without BMA: 0.59
  acrA transcription level relative to wild type without BMA: 0.64
  acrB transcription level relative to wild type without BMA: 0.98
  adiY transcription level relative to wild type without BMA: 0.19
  ariR transcription level relative to wild type without BMA: 0.44
  asr transcription level relative to wild type without BMA: 0.22
  bssR transcription level relative to wild type without BMA: 0.46
  ibpA transcription level relative to wild type without BMA: 0.09
  ibpB transcription level relative to wild type without BMA: 0.42
  narG transcription level relative to wild type without BMA: 0.40
  nirB transcription level relative to wild type without BMA: 0.06
  nirD transcription level relative to wild type without BMA: 0.57
  pspA transcription level relative to wild type without BMA: 0.04
  pspB transcription level relative to wild type without BMA: 0.73
  pspD transcription level relative to wild type without BMA: 0.14
  pspc transcription level relative to wild type without BMA: 0.10
  raiA transcription level relative to wild type without BMA: 0.11
  rmf transcription level relative to wild type without BMA: 0.28
  soxS transcription level relative to wild type without BMA: 0.24
  spy transcription level relative to wild type without BMA: 3.91
  ybfA transcription level relative to wild type without BMA: 0.39
  ybhG transcription level relative to wild type without BMA: 0.19
  ybiH transcription level relative to wild type without BMA: 0.04
  ydgU transcription level relative to wild type without BMA: 7.95
  yhjx transcription level relative to wild type without BMA: 1.72
  yibT transcription level relative to wild type without BMA: 0.09
  ymgA transcription level relative to wild type without BMA: 0.16
  ymgC transcription level relative to wild type without BMA: 6.27
  ynfM transcription level relative to wild type without BMA: 0.07
  yohk transcription level relative to wild type without BMA: 0.13
[5]; LM double mutant
  acrA transcription level relative to wild type without BMA: 5.13
  acrB transcription level relative to wild type without BMA: 4.99
[5]; double mutant
  IdhA transcription level relative to wild type without BMA: 30.42
  adiY transcription level relative to wild type without BMA: 10.80
  ariR transcription level relative to wild type without BMA: 8.91
  asr transcription level relative to wild type without BMA: 711.06
  bssR transcription level relative to wild type without BMA: 5.47
  ibpA transcription level relative to wild type without BMA: 80.35
  ibpB transcription level relative to wild type without BMA: 672.54
  narG transcription level relative to wild type without BMA: 3.23
  nirB transcription level relative to wild type without BMA: 3.28
  nirD transcription level relative to wild type without BMA: 3.57
  pspA transcription level relative to wild type without BMA: 27.60
  pspB transcription level relative to wild type without BMA: 11.73
  pspD transcription level relative to wild type without BMA: 10.00
  pspc transcription level relative to wild type without BMA: 11.09
  raiA transcription level relative to wild type without BMA: 36.36
  rmf transcription level relative to wild type without BMA: 17.63
  soxS transcription level relative to wild type without BMA: 20.93
  spy transcription level relative to wild type without BMA: 99.47
  ybfA transcription level relative to wild type without BMA: 59.92
  ybhG transcription level relative to wild type without BMA: 10.78
  ybiH transcription level relative to wild type without BMA: 7.73
  ydgU transcription level relative to wild type without BMA: 188.87
  yhjx transcription level relative to wild type without BMA: 2.32
  yibT transcription level relative to wild type without BMA: 43.57
  ymgA transcription level relative to wild type without BMA: 9.97
  ymgC transcription level relative to wild type without BMA: 11.68
  ynfM transcription level relative to wild type without BMA: 29.92
  yohk transcription level relative to wild type without BMA: 19.51
[6]
  Growth rate: 0.703 ± 0.030 h⁻¹
  Lag time: 5 h
  Max cell concentration: 0.438 ± 0.022 g/L
[7]
  Growth rate: 0.701 ± 0.007 h⁻¹
  Lag time: 5 h
  Max cell concentration: 0.653 ± 0.023 g/L
[8]
  Growth rate: 0.566 ± 0.010 h⁻¹
  Lag time: 4 h
  Max cell concentration: 0.790 ± 0.076 g/L
[9]
  Growth in the presence of BMA: able to grow
[10]
  Growth rate: 0.701 ± 0.015 h⁻¹
  Lag time: 4 h
  Max cell concentration: 0.523 ± 0.024 g/L
